The text below walks through data of patent US20110044952A1, “AMPLIFICATION OF CANCER-SPECIFIC ONCOLYTIC VIRAL INFECTION BY HISTONE DEACETYLASE INHIBITORS” (Ottawa Health Research Institute, priority 2007, published 2011).

The assay deals with VSV-d51-GFP. The format is cell-based.
As to `Nc1ccccc1NC(=O)c1ccc(CNC(=O)OCc2cccnc2)cc1` [MS-275], the “amount of GFP-positive cells as an indication of VSV replication” value (“amount of GFP-positive cells” below) is given as “increased the amount of GFP-positive cells”.

With `O=C(/C=C/c1cccc(S(=O)(=O)Nc2ccccc2)c1)NO` [PXD101], the “amount of GFP-positive cells” value is given as “increased the amount of GFP-positive cells”.

In the case of `O=C(CCCCCCC(=O)Nc1ccccc1)NO` [SAHA, suberoylanilide hydroxamic acid], the “amount of GFP-positive cells” value is “increased the amount of GFP-positive cells”.

On to `CCCC(CCC)C(=O)O` [VPA], for which the “amount of GFP-positive cells” value is recorded as “little to no effect”.
